{
  "source": "patent US10857230B2",
  "about": "“Co-therapy comprising a small molecule CSF-1R inhibitor and an agonistic antibody that specifically binds CD40 for the treatment of cancer” (Janssen Biotech, Inc., priority 2017, dated 2020)",
  "origin": "cited, not measured here",
  "key": {"[1]": {"tested_on": "B cells and dendritic cells", "settings": "cited from earlier work"}, "[2]": {"settings": "patient clinical trials; day of antibody intravenous infusion; cited from earlier work"}},
  "data": [
    {"substance": "CP-870,893: cross-linking independent agonistic CD40 antibody; VH and VL of SEQ ID NOs: 44 and 45, may be IgG2", "values": [
      {"measurement": "potency in activating B cells relative to dendritic cells", "setting": "[1]", "result": "about 20 fold"},
      {"measurement": "most common side effects", "setting": "[2]", "result": "moderate CRS"}
    ]}
  ]
}
